According to patent US8415469B2, “Compounds and methods for kinase modulation, and indications therefor” (Plexxikon Inc., priority 2005, dated 2013):

What was measured:
Type in all cases: biochemical
[1] = molecular target: T1, B-Raf (Homo sapiens, UniProt P15056); test: AlphaScreen kinase assay, B-Raf; conditions: read-out: IC50, activity toward kinase B-Raf
T1 construct: purchased Upstate Biotechnology

[2] = molecular target: T2, B-Raf V600E (Homo sapiens, UniProt P15056, V600E); test: AlphaScreen kinase assay, B-Raf V600E; conditions: read-out: IC50, activity toward kinase B-Raf V600E
T2 construct: P4254. pFastBacBD-CDC37 BRAF D437-K722-X, V600E; His6 with pFastBac HT leader (TEV site) (N); made in house; host or cells: Sf9 (baculovirus; chaperone CDC37 co-expressed)
T2 sequence (P15056 with tags, fused parts or gaps V600E): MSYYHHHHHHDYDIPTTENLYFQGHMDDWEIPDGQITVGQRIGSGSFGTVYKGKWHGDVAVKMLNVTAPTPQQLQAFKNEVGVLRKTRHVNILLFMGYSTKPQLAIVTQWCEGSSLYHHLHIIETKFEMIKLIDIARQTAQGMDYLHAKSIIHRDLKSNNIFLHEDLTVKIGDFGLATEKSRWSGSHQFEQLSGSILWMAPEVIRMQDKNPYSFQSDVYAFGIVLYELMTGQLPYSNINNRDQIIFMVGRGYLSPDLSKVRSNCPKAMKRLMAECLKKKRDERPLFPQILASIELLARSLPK

[3] = molecular target: T3, Fms (Homo sapiens, UniProt P07333); test: AlphaScreen kinase assay, Fms; conditions: read-out: IC50, activity toward kinase Fms
T3 construct: purchased Upstate Biotechnology
T3 sequence (P07333 20-972): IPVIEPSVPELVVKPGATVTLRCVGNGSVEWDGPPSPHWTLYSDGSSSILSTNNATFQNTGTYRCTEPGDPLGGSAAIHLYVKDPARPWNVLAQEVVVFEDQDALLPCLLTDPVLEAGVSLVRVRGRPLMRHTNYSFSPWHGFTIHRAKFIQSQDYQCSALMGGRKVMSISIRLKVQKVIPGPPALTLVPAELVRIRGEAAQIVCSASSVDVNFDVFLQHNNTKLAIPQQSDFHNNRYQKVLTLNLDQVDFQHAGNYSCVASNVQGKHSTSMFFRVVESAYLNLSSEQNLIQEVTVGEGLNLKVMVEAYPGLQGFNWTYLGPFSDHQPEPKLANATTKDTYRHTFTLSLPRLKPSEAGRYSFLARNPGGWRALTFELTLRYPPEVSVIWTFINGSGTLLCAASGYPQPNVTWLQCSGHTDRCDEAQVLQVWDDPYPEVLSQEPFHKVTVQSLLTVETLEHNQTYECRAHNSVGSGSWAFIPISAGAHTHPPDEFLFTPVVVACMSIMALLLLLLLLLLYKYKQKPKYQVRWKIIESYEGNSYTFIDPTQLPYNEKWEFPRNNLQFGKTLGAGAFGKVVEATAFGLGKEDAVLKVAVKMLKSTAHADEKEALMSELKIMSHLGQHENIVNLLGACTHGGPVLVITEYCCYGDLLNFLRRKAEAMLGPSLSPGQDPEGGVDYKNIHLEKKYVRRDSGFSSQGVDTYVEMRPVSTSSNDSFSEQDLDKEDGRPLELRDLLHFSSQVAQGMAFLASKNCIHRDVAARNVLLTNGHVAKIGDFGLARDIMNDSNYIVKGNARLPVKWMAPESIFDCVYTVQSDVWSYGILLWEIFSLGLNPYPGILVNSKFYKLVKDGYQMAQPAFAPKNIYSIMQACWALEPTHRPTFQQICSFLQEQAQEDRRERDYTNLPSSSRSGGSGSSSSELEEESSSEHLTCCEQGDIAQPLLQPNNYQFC

[4] = molecular target: T4, Kit (Homo sapiens, UniProt P10721); test: AlphaScreen kinase assay, Kit; conditions: read-out: IC50, activity toward kinase Kit
T4 construct: P1332.N6 BI PTP KIT M552-K948-X COD; His6 (N); made in house; host or cells: E. coli (PTP1B co-expressed)
T4 sequence (P10721 with tags, fused parts or gaps): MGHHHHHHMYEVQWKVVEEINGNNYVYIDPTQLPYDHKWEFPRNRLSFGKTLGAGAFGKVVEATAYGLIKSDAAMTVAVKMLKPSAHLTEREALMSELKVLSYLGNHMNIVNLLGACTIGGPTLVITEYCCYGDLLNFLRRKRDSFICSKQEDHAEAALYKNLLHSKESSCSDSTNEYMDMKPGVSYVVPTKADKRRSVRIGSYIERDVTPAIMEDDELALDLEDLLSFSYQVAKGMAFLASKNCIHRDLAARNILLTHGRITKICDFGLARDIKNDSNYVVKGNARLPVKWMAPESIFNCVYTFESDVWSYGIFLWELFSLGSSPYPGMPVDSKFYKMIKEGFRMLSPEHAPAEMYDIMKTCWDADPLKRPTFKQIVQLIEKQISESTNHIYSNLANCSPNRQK
Source text: AlphaScreen assay was used to screen additional kinases. The assay is similarly dependent on the phosphorylation of a peptide substrate. In this assay, an antibody that recognizes phosphorylated substrate is bound to an acceptor bead. The peptide substrate is attached to biotin, which binds to a donor head that contains streptavidin. Thus phosphorylated substrate is bound by antibody and streptavidin, bringing the donor and acceptor heads into close proximity when kinase is not inhibited. The donor produces singlet oxygen which results in emission from the acceptor when they are in close proximity. Conversely, when kinase is inhibited, the donor and acceptor beads are not associated and the emission from the acceptor is reduced.
AlphaScreen assays were done using compounds dissolved in DMSO to a concentration of 20 mM. The compounds were diluted accordingly to the desired final concentrations in each sample well, using 1:3 serial dilution for a total of 8 concentration points. Plates were prepared such that each kinase reaction is 20 μl in 1× kinase buffer, 5% DMSO and 10 μM ATP. After incubation of the kinase reaction for 1 hour at room temperature, 5 μl of donor beads in stop buffer (50 mM EDTA in 1× kinase buffer) was added, the sample was mixed and incubated for 20 minutes at room temperature before adding 5 μl of acceptor beads in stop buffer. The samples were incubated for 60 minutes at room temperature and the signal per well was read on AlphaQuest reader.

[5] = molecular target: T5, FGFR1 (Homo sapiens, UniProt P11362, C488A/C584S); test: AlphaScreen kinase assay, FGFR1; conditions: read-out: IC50, activity toward kinase FGFR
T5 construct: P1351.pET N6 BI-PTP FGFR A458-E765-X C488A, C584S; made in house; host or cells: E. coli (PTP1B co-expressed)
T5 sequence (P11362 458-765 C488A/C584S): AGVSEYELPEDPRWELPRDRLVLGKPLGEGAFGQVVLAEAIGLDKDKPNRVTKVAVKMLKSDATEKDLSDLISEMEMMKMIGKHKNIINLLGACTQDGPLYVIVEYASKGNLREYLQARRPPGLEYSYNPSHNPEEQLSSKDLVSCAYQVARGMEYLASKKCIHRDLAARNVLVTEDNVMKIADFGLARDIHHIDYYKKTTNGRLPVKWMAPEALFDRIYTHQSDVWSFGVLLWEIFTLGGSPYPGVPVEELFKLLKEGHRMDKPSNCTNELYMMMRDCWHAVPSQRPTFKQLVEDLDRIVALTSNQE

Measured: IC50

T1 sequence (P15056 whole entry): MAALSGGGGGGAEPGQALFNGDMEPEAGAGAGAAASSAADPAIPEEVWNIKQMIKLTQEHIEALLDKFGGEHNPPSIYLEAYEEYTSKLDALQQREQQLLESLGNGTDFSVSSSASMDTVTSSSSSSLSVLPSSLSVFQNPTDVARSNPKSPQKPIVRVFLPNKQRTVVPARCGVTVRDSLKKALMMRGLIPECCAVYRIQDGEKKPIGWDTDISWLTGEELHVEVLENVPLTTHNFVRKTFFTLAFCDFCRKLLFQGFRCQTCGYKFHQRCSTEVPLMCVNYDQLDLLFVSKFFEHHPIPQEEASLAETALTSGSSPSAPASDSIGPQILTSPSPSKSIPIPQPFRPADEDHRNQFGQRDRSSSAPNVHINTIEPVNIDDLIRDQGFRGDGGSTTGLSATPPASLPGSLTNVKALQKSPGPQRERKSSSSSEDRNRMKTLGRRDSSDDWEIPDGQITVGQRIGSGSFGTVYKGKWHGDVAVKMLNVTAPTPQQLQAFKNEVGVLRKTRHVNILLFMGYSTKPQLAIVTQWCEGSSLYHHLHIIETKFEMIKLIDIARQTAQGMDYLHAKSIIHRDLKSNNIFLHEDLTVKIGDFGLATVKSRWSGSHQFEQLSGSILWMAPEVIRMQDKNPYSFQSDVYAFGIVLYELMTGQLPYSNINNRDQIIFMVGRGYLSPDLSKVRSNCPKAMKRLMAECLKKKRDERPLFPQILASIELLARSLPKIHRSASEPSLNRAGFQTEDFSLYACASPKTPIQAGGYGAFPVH

COCCOc1cnc2[nH]cc(C(=O)c3c(F)ccc(NS(=O)(=O)c4ccc(F)cc4)c3F)c2c1 [Compound P-1872, N-{2,4-Difluoro-3-[5-(2-methoxy-ethoxy)-1H-1-pyrrolo[2,3-b]pyridine-3-carbonyl]-phenyl}-4-fluoro-benzenesulfonamide]
not listed: [5]
≤ 10 µM: all other assays above

O=C(Nc1cccc(Cl)c1)Nc1cccc(C(=O)c2c[nH]c3ncc(Cl)cc23)c1 [Compound P-1736, 1-(3-Chloro-phenyl)-3-[3-(5-chloro-1H-pyrrolo[2,3-b]pyridine-3-carbonyl)-phenyl]-urea]
≤ 10 µM: [1] | [2] | [3]

O=C(Nc1cccc(C(=O)c2c[nH]c3ncc(Cl)cc23)c1)Nc1cccc(C(F)(F)F)c1 [Compound P-1747, 1-[3-(5-Chloro-1H-pyrrolo[2,3-b]pyridine-3-carbonyl)-phenyl]-3-(3-trifluoromethyl-phenyl)-urea]
≤ 10 µM: [1] | [2] | [3]

O=C(Nc1cccc(C(=O)c2c[nH]c3ncc(Cl)cc23)c1)Nc1ccc(F)c(F)c1 [Compound P-1735, 1-[3-(5-Chloro-1H-pyrrolo[2,3-b]pyridine-3-carbonyl)-phenyl]-3-(3,4-difluoro-phenyl)-urea]
≤ 10 µM: [1] | [2] | [3]

O=C(c1cccc(NS(=O)(=O)c2ccc(C(F)(F)F)cc2)c1)c1c[nH]c2ncccc12 [Compound P-1784]
≤ 10 µM: [1] | [2] | [3]

O=C(Nc1cccc(Cl)c1)Nc1cccc(C(=O)c2c[nH]c3ncccc23)c1 [Compound P-1710, 1-(3-Chloro-phenyl)-3-[3-(1H-pyrrolo[2,3-b]pyridine-3-carbonyl)-phenyl]-urea]
≤ 10 µM: [1] | [2] | [3]

O=C(c1c(F)ccc(NS(=O)(=O)c2ccc(OC(F)F)cc2)c1F)c1c[nH]c2ncc(Cl)cc12 [Compound P-1916, N-[3-(5-Chloro-1H-pyrrolo[2,3-b]pyridine-3-carbonyl)-2,4-difluoro-phenyl]-4-difluoromethoxy-benzenesulfonamide]
≤ 10 µM: [1] | [2] | [3]

CN(C)c1ccc(NC(=O)Nc2cccc(C(=O)c3c[nH]c4ncccc34)c2)cc1 [Compound P-1780, 1-(4-Dimethylamino-phenyl)-3-[3-(1H-pyrrolo[2,3-b]pyridine-3-carbonyl)-phenyl]-urea]
≤ 10 µM: [1] | [2] | [3]

O=C(Nc1cccc(C(=O)c2c[nH]c3ncccc23)c1)Nc1cccc(C(F)(F)F)c1 [Compound P-1746, 1-[3-(1H-Pyrrolo[2,3-b]pyridine-3-carbonyl)-phenyl]-3-(3-trifluoromethyl-phenyl)-urea]
≤ 10 µM: [1] | [2] | [3]

N#Cc1ccc(S(=O)(=O)Nc2ccc(F)c(C(=O)c3c[nH]c4ncc(Cl)cc34)c2F)cc1 [Compound P-1822, N-[3-(5-Chloro-1H-pyrrolo[2,3-b]pyridine-3-carbonyl)-2,4-difluoro-phenyl]-4-cyano-benzenesulfonamide]
not listed: [5]
≤ 10 µM: all other assays above

O=C(c1c(F)ccc(NS(=O)(=O)c2ccc(-c3ccccn3)s2)c1F)c1c[nH]c2ncc(Cl)cc12 [Compound P-1800, 5-Pyridin-2-yl-thiophene-2-sulfonic acid [3-(5-chloro-1H-pyrrolo[2,3-b]pyridine-3-carbonyl)-2,4-difluoro-phenyl]-amide]
≤ 10 µM: [1] | [2] | [3]

O=C(c1c(F)ccc(NS(=O)(=O)c2cc3ccccc3s2)c1F)c1c[nH]c2ncc(Cl)cc12 [Compound P-1799, Benzo[b]thiophene-2-sulfonic acid [3-(5-chloro-1H-pyrrolo[2,3-b]pyridine-3-carbonyl)-2,4-difluoro-phenyl]-amide]
≤ 10 µM: [1] | [2] | [3]

O=C(c1cc(NS(=O)(=O)c2cccc(F)c2)ccc1Cl)c1c[nH]c2ncc(Cl)cc12 [Compound P-1663]
≤ 10 µM: [1] | [2] | [3]

O=C(Nc1ccc(F)cc1)Nc1cccc(C(=O)c2c[nH]c3ncc(-c4ccc(F)cc4)cc23)c1 [Compound P-1816, 1-(4-Fluoro-phenyl)-3-{3-[5-(4-fluoro-phenyl)-1H-pyrrolo[2,3-b]pyridine-3-carbonyl]-phenyl}-urea]
≤ 10 µM: [1] | [2] | [3]

CCCCOc1ccc(NC(=O)Nc2cccc(C(=O)c3c[nH]c4ncccc34)c2)cc1 [Compound P-1715, 1-(4-Butoxy-phenyl)-3-[3-(1H -pyrrolo[2,3-b]pyridine-3-carbonyl)-phenyl]-urea]
≤ 10 µM: [1] | [2] | [3]

Cc1cccc(NC(=O)Nc2cccc(C(=O)c3c[nH]c4ncc(-c5ccc(F)cc5)cc34)c2)c1 [Compound P-1758, 1-{3-[5-(4-Fluoro-phenyl)-1H-pyrrolo[2,3-b]pyridine-3-carbonyl]-phenyl}-3-m-tolyl-urea]
≤ 10 µM: [1] | [2] | [3]

COCCOc1ccc(-c2cnc3[nH]cc(C(=O)c4c(F)ccc(NS(=O)(=O)c5ccc(C(F)(F)F)cc5)c4F)c3c2)cc1 [Compound P-2013, N-(2,4-Difluoro-3-{5-[4-(2-methoxy-ethoxy)-phenyl]-1H-pyrrolo[2,3-b]pyridine-3-carbonyl}-phenyl)-4-trifluoromethyl-benzenesulfonamide]
≤ 10 µM: [1] | [2] | [3]

CN(C)c1ccc(NC(=O)Nc2cccc(C(=O)c3c[nH]c4ncc(Cl)cc34)c2)cc1 [Compound P-1782, 1-[3-(5-Chloro-1H-pyrrolo[2,3-b]pyridine-3-carbonyl)-phenyl]-3-(4-dimethylamino-phenyl)-urea]
≤ 10 µM: [1] | [2] | [3]

O=C(c1ccc(F)cc1F)c1c[nH]c2ncc(-c3cccnc3)cc12 [Compound P-1555]
≤ 10 µM: [1] | [5] | [3]

O=C(c1c(F)ccc(NS(=O)(=O)c2ccccc2F)c1F)c1c[nH]c2ncc(Cl)cc12 [Compound P-1912, N-[3-(5-Chloro-1H-pyrrolo[2,3-b]pyridine-3-carbonyl)-2,4-difluoro-phenyl]-2-fluoro-benzenesulfonamide]
≤ 10 µM: [1] | [2] | [3]

CCCCOc1ccc(NC(=O)Nc2cccc(C(=O)c3c[nH]c4ncc(Cl)cc34)c2)cc1 [Compound P-1741, 1-(4-Butoxy-phenyl)-3-[3-(5-chloro-1H-pyrrolo[2,3-b]pyridine-3-carbonyl)-phenyl]-urea]
≤ 10 µM: [1] | [2] | [3]

COc1ccc(NC(=O)Nc2cccc(C(=O)c3c[nH]c4ncc(-c5ccc(F)cc5)cc34)c2)cc1OC [Compound P-1818, 1-(3,4-Dimethoxy-phenyl)-3-{3-[5-(4-fluoro-phenyl)-1H-pyrrolo[2,3-b]pyridine-3-carbonyl]-phenyl}-urea]
≤ 10 µM: [1] | [2] | [3]

O=C(Nc1cccc(C(=O)c2c[nH]c3ncccc23)c1)Nc1ccc(C(F)(F)F)c(Cl)c1 [Compound P-1766, 1-(3-Chloro-4-trifluoromethyl-phenyl)-3-[3-(1H-pyrrolo[2,3-b]pyridine-3-carbonyl)-phenyl]-urea]
≤ 10 µM: [1] | [2] | [3]

O=C(Nc1cccc(F)c1)Nc1cccc(C(=O)c2c[nH]c3ncc(-c4ccc(F)cc4)cc23)c1 [Compound P-1819, 1-(3-Fluoro-phenyl)-3-{3-[5-(4-fluoro-phenyl)-1H-pyrrolo[2,3-b]pyridine-3-carbonyl]-phenyl}-urea]
≤ 10 µM: [1] | [2] | [3]

O=C(Nc1cccnc1)Nc1cccc(C(=O)c2c[nH]c3ncc(Cl)cc23)c1 [Compound P-1771, 1-[3-(5-Chloro-1H-pyrrolo[2,3-b]pyridine-3-carbonyl)-phenyl]-3-pyridin-3-yl-urea]
≤ 10 µM: [1] | [2] | [3]

O=C(c1c(F)ccc(NS(=O)(=O)c2ccc(C(F)(F)F)cc2)c1F)c1c[nH]c2ncc(-c3ccc(Cl)cc3)cc12 [Compound P-1670]
≤ 10 µM: [1] | [2] | [3]
